Data on 16 compounds can be found in patent US20110028444A1, “PHARMACEUTICALLY ACCEPTABLE SALTS OF ANTI-INFECTION QUINOLONE COMPOUNDS” (priority 2008, published 2011).

Converted amounts (≈) assume the structure as drawn. Read-outs that look alike come from different tables or passages of the source.

One data set deals with Escherichia coli. Briefly: In-vitro antibacterial test, agar dilution MIC. It counts as cell-based. The settings on record: for MIC: Escherichia coli, read-out: In-vitro MIC. On the technique in general: Agar dilution tests growth on a series of plates holding different concentrations.
The test system of another data set is Streptococcus pneumoniae. Briefly: In-vitro antibacterial test, agar dilution MIC. It counts as cell-based. The settings on record: for MIC: Streptococcus pneumoniae, read-out: In-vitro MIC. How it is done: (§1) Test method: the agar dilution method was used for the minimum inhibitory concentration (MIC) determination. The antibacterial chemicals were mixed with given amounts of agar in various concentrations and the mixtures were made into solid plates. Each plate had the antibacterial concentration two times higher than the next plate. Bacteria species were then added to the surface of the plates, cultured, and observed for their growth.
(§2) Other bacteria included those isolated from sputum, throat swab or urine of patients with acute bacterial respiratory tract infection or urinary tract infection and identified by the hospitals.
(§3) (S)-6-fluoro-1-methyl-4-oxo-7-(1-piperazinyl)-1H,4H-[1,3]thiazeto[3,2-a]quino line-3-carboxylic acid lactate and other test samples, equivalent to 96 mg of ulifloxacin, were dissolved in sterilized distilled water to make up 50 mL of each solution.

Another data set deals with Enterobacter cloacae. Nature of the data set: In-vitro antibacterial test, agar dilution MIC. It counts as cell-based. The settings on record: read-out: In-vitro MIC.
The next data set deals with Enterococcus faecalis. Briefly: In-vitro antibacterial test, agar dilution MIC. The format is cell-based. The conditions noted are these: read-out: In-vitro MIC.
Another data set relates to Staphylococcus aureus. Nature of the data set: In-vitro antibacterial test, agar dilution MIC. It counts as cell-based. The settings on record: for MIC: Staphylococcus aureus, read-out: In-vitro MIC.
A short description of data set [1]: Solubility test: maximum solubility in water. It counts as physicochemical. The conditions noted are these: thermodynamic from solid. As for the experimental part:
Three lots of mesylates and three lots of lactates, respectively, were subjected to preliminary tests for maximum solubility in water. At ambient temperature (25° C.), 0.2 g of sample was dissolved in 1 mL of water. To the solution was added 0.1 g of the sample each time until the sample could no longer be dissolved. The amount of sample dissolved was the maximum solubility.

The next data set deals with Klebsiella pneumoniae. Nature of the data set: In-vitro antibacterial test, agar dilution MIC. The format is cell-based. The settings on record: for MIC: Klebsiella pneumoniae.
For a further data set, the system named is Vibrio cholerae. Nature of the data set: In-vitro antibacterial test, agar dilution MIC. The format is cell-based. The settings on record: for MIC: Vibrio cholerae, read-out: In-vitro MIC; for In-vitro MIC: agar dilution.
The test system of another data set is Pseudomonas aeruginosa. Nature of the data set: In-vitro antibacterial test, agar dilution MIC. The format is cell-based. The conditions noted are these: for MIC: Pseudomonas aeruginosa, read-out: In-vitro MIC.
Data set [2] concerns Klebsiella pneumoniae, Pseudomonas aeruginosa, Staphylococcus aureus, Escherichia coli, Enterococcus faecalis, Streptococcus pneumoniae, Enterobacter cloacae …. Nature of the data set: In-vitro antibacterial tests, summary over the tested bacteria. It counts as cell-based. The settings on record: for antibacterial activity (in words): against the eight tested bacteria. As for the experimental part: as §1, §2, §3

Where [3] appears, read: maximum solubility in water, ambient temperature (25° C.), average of two tests, preliminary, read-out: Water Solubility.

Text for Vibrio cholerae: The test bacterial strains were the standard quality control test strains of Klebsiella pneumoniae strains (Strains No. CMCC 46114-8), Pseudomonas aeruginosa (Strains No. ATCC 27853), Escherichia coli (Strains No. ATCC25922), and Staphylococcus aureus cocci (Strains No. ATCC25925). Other bacteria included those isolated from sputum, throat swab or urine of patients with acute bacterial respiratory tract infection or urinary tract infection and identified by the hospitals.
HCl levofloxacin injection and NaCl ciprofloxacin lactate injection were diluted with sterilized distilled water to a concentration of 1920 μg/mL.

As a reminder, the MIC is the least concentration at which growth counts as inhibited. One may read the solubility as the dissolved amount per volume that the medium holds. Consider `CC(O)C(=O)O.CC1Sc2c(C(=O)O)c(=O)c3cc(F)c(N4CCNCC4)cc3n21` (racemic) [Ulifloxaci lactate (±), (±)-6-fluoro-1-methyl-4-oxo-7-(1-piperazinyl)-1H,4H-[1,3]thiazeto[3,2-a]quinoline-3-carboxylic acid lactate, reference compound], for which the MIC worked out at 0.125 µg/mL with Escherichia coli; 0.1 µg/mL in the data set on Streptococcus pneumoniae; 1.25 µg/mL in the data set on Enterobacter cloacae; 2 µg/mL in the data set on Enterococcus faecalis (agar dilution); 0.25 µg/mL in the data set with Staphylococcus aureus. Moreover, in data set [1] (setting [3]), the solubility worked out at 106 mg/mL.

Regarding `CC1Sc2c(C(=O)O)c(=O)c3cc(F)c(N4CCNCC4)cc3n21.CS(=O)(=O)O` (racemic) [Ulifloxaci mesylate (±), (±)-6-fluoro-1-methyl-4-oxo-7-(1-piperazinyl)-1H,4H-[1,3]thiazeto[3,2-a]quinoline-3-carboxylic acid mesylate, reference compound], the minimum inhibitory concentration (MIC) worked out at 0.063 µg/mL in the data set on Escherichia coli; 0.088 µg/mL in the data set on Streptococcus pneumoniae; 1 µg/mL with Enterobacter cloacae (agar dilution); 1.5 µg/mL with Enterococcus faecalis; 0.2 µg/mL in the data set on Klebsiella pneumoniae; 0.5 µg/mL in the data set on Staphylococcus aureus (agar dilution). The MIC in the data set with Vibrio cholerae turned out to be 0.5 µg/mL. The compound also yielded a solubility in [1] (25 °C, water) of 340 mg/mL.

Turning to `O=C(O)c1cn(C2CC2)c2cc(N3CCNCC3)c(F)cc2c1=O` [Ciprofloxacin, reference compound], the MIC with Escherichia coli (agar dilution) was 0.0313 µg/mL (≈ 0.0945 µM); against Klebsiella pneumoniae, 0.0313 to 0.0625 µg/mL (≈ 0.0945 to 0.189 µM); with Staphylococcus aureus (agar dilution) it was 0.5 to 1 µg/mL (≈ 1.51 to 3.02 µM); in the data set with Pseudomonas aeruginosa (agar dilution), 0.5 µg/mL (≈ 1.51 µM).

For `C[C@@H]1Sc2c(C(=O)O)c(=O)c3cc(F)c(N4CCNCC4)cc3n21` [Compound 2, (S)-6-fluoro-1-methyl-4-oxo-7-(1-piperazinyl)-1H,4H-[1,3]thiazeto[3,2-a]quinoline-3-carboxylic acid], the MIC in the data set with Escherichia coli (agar dilution) is 0.0125 µg/mL (≈ 0.0358 µM); in the data set on Streptococcus pneumoniae (agar dilution) it was 0.025 µg/mL (≈ 0.0716 µM); with Enterobacter cloacae (agar dilution), 0.5 µg/mL (≈ 1.43 µM); with Staphylococcus aureus (agar dilution), 0.177 µg/mL (≈ 0.507 µM); in the data set with Pseudomonas aeruginosa (agar dilution) it was 0.177 µg/mL (≈ 0.507 µM). Moreover, the “antibacterial activity relative to R-ulifloxacin” value in data set [2] was 3 to 10 times. Also, in data set [2], the “antibacterial activity relative to racemic ulifloxacin” value is reported as “two or more times”. In addition, in data set [2], the “antibacterial activity (in words)” value is reported as “relatively strong antibacterial activity”.

In the case of `C[C@H]1Sc2c(C(=O)O)c(=O)c3cc(F)c(N4CCNCC4)cc3n21` [Compound 3, (R)-6-fluoro-1-methyl-4-oxo-7-(1-piperazinyl)-1H,4H-[1,3]thiazeto[3,2-a]quinoline-3-carboxylic acid], the minimum inhibitory concentration (MIC) in the data set on Escherichia coli (agar dilution) is 0.225 µg/mL (≈ 0.644 µM); in the data set with Streptococcus pneumoniae (agar dilution), 0.25 µg/mL (≈ 0.716 µM); in the data set on Enterobacter cloacae (agar dilution) it was 4 µg/mL (≈ 11.4 µM); in the data set on Staphylococcus aureus (agar dilution) it was 2.83 µg/mL (≈ 8.09 µM); in the data set on Pseudomonas aeruginosa (agar dilution) it was 2 µg/mL (≈ 5.72 µM).

As for `CS(=O)(=O)O.C[C@H]1Sc2c(C(=O)O)c(=O)c3cc(F)c(N4CCNCC4)cc3n21` [Compound 9, (R)-6-fluoro-1-methyl-4-oxo-7-(1-piperazinyl)-1H,4H-[1,3]thiazeto[3,2-a]quinoline-3-carboxylic acid mesylate], the MIC with Streptococcus pneumoniae worked out at 0.125 µg/mL; with Enterobacter cloacae (agar dilution), 4 µg/mL; with Enterococcus faecalis, 4 µg/mL; against Klebsiella pneumoniae, 0.5 µg/mL; in the data set with Staphylococcus aureus (agar dilution), 2 µg/mL; with Pseudomonas aeruginosa, 1 µg/mL. In addition, in the data set with Vibrio cholerae, the MIC amounted to 2 µg/mL. The same compound yielded a solubility in data set [1] (25 °C, water) of 501 mg/mL.

Turning to `CC(O)C(=O)O.C[C@H]1Sc2c(C(=O)O)c(=O)c3cc(F)c(N4CCNCC4)cc3n21` [Compound 13, (R)-6-fluoro-1-methyl-4-oxo-7-(1-piperazinyl)-1H,4H-[1,3]thiazeto[3,2-a]quinoline-3-carboxylic acid lactate], the MIC in the data set with Escherichia coli was 0.25 µg/mL; in the data set with Streptococcus pneumoniae it was 0.125 µg/mL; in the data set on Enterococcus faecalis (agar dilution) it was 4 µg/mL; with Staphylococcus aureus, 1 µg/mL; in the data set with Pseudomonas aeruginosa, 1 µg/mL. The solubility in data set [1] (setting [3]) stood at 116 mg/mL.

Take `C[C@H]1COc2c(N3CCN(C)CC3)c(F)cc3c(=O)c(C(=O)O)cn1c23` [Levofloxacin, reference compound]: the MIC came out at 0.0313 µg/mL (≈ 0.0866 µM) with Escherichia coli (agar dilution), 0.0125 µg/mL (≈ 0.0346 µM) with Klebsiella pneumoniae, 0.5 µg/mL (≈ 1.38 µM) in the data set on Staphylococcus aureus (agar dilution) and 2 µg/mL (≈ 5.53 µM) in the data set with Pseudomonas aeruginosa (agar dilution).

Take “(R)-6-fluoro-1-methyl-4-oxo-7-(1-piperazinyl)-1H,4H-[1,3]thiazeto[3,2-a]quinoline-3-carboxylic acid aspartate [Compound 11]”: the results for the “In-vitro MIC” value with Escherichia coli (agar dilution), in the data set with Staphylococcus aureus (agar dilution) and with Pseudomonas aeruginosa (agar dilution) were 0.25 µg/mL, 2 µg/mL and 1 µg/mL, respectively.

For the compound “(R)-6-fluoro-1-methyl-4-oxo-7-(1-piperazinyl)-1H,4H-[1,3]thiazeto[3,2-a]quinoline-3-carboxylic acid gluconate [Compound 10]”, the “In-vitro MIC” value with Escherichia coli (agar dilution) worked out at 0.25 µg/mL; with Klebsiella pneumoniae, 0.5 µg/mL; in the data set on Staphylococcus aureus (agar dilution), 1 µg/mL; with Pseudomonas aeruginosa (agar dilution), 1 µg/mL; in the data set on Vibrio cholerae, 2 µg/mL.

With “(R)-6-fluoro-1-methyl-4-oxo-7-(1-piperazinyl)-1H,4H-[1,3]thiazeto[3,2-a]quinoline-3-carboxylic acid glutamate [Compound 12]”, the figures for the “In-vitro MIC” value in the data set on Escherichia coli (agar dilution), in the data set with Streptococcus pneumoniae (agar dilution) and in the data set on Staphylococcus aureus (agar dilution) were 0.5 µg/mL, 0.5 µg/mL and 2 µg/mL, respectively.

Regarding “(S)-6-fluoro-1-methyl-4-oxo-7-(1-piperazinyl)-1H,4H-[1,3]thiazeto[3,2-a]quinoline-3-carboxylic acid aspartate [Compound 7]”, the “In-vitro MIC” value was 0.02 µg/mL in the data set on Escherichia coli (agar dilution), 0.25 µg/mL in the data set with Staphylococcus aureus (agar dilution) and 0.25 µg/mL with Pseudomonas aeruginosa (agar dilution). In data set [2], the “antibacterial activity (in words)” value is on record as “relatively strong antibacterial activity”.

With “(S)-6-fluoro-1-methyl-4-oxo-7-(1-piperazinyl)-1H,4H-[1,3]thiazeto[3,2-a]quinoline-3-carboxylic acid glutamate [Compound 8]”, the results for the “In-vitro MIC” value with Escherichia coli (agar dilution), in the data set with Streptococcus pneumoniae (agar dilution) and with Staphylococcus aureus (agar dilution) were 0.01 µg/mL, 0.125 µg/mL and 0.25 µg/mL, respectively. Further, the “antibacterial activity (in words)” value in data set [2] is reported as “relatively strong antibacterial activity”.

On to “(±)-6-fluoro-1-methyl-4-oxo-7-(1-piperazinyl)-1H,4H-[1,3]thiazeto[3,2-a]quino line-3-carboxylic acid aspartate [Ulifloxaci aspartate (±), reference compound]”, for which the “In-vitro MIC” value in the data set with Escherichia coli (agar dilution) was determined as 0.1 µg/mL; in the data set with Staphylococcus aureus (agar dilution), 0.5 µg/mL; in the data set on Pseudomonas aeruginosa (agar dilution) it was 0.5 µg/mL.

In the case of “(±)-6-fluoro-1-methyl-4-oxo-7-(1-piperazinyl)-1H,4H-[1,3]thiazeto[3,2-a]quinoline-3-carboxylic acid gluconate [Ulifloxaci gluconate (±), reference compound]”, the “In-vitro MIC” value in the data set with Escherichia coli (agar dilution) stood at 0.05 µg/mL; in the data set on Klebsiella pneumoniae it was 0.2 µg/mL; with Staphylococcus aureus (agar dilution) it was 0.5 µg/mL; in the data set with Pseudomonas aeruginosa (agar dilution) it was 0.5 µg/mL; in the data set on Vibrio cholerae, 0.5 µg/mL.

For the compound “(±)-6-fluoro-1-methyl-4-oxo-7-(1-piperazinyl)-1H,4H-[1,3]thiazeto[3,2-a]quinoline-3-carboxylic acid glutamate [Ulifloxaci glutamate (±), reference compound]”, the results for the “In-vitro MIC” value in the data set on Escherichia coli (agar dilution), in the data set with Streptococcus pneumoniae (agar dilution) and with Staphylococcus aureus (agar dilution) were 0.125 µg/mL, 0.2 µg/mL and 0.5 µg/mL, respectively.
